Literature values, collected in US8680270B2, “Metallo-oxidoreductase inhibitors using metal binding moieties in combination with targeting moieties” (Viamet Pharmaceuticals, Inc., priority 2006, dated 2014).
Where two headings read alike, the source gives them in different places.

Legend:
[1] = tested on: androgen-dependent Dunning-H tumor; settings: 120 mg/100 gm food, equivalent to 100 mg/kg per day
[2] = tested on: androgen-independent, anaplastic AT-6 tumors; settings: 120 mg/100 gm food, equivalent to 100 mg/kg per day
[3] = tested on: Plasmodium falciparum
[4] = tested on: Plasmodium falciparum; remark: listed apart in the source
[5] = target: T1, sGC (Homo sapiens, UniProt Q02153); design: dose or concentration left out as unconfirmed; settings: broken cell preparations
T1 sequence (Q02153 1-619): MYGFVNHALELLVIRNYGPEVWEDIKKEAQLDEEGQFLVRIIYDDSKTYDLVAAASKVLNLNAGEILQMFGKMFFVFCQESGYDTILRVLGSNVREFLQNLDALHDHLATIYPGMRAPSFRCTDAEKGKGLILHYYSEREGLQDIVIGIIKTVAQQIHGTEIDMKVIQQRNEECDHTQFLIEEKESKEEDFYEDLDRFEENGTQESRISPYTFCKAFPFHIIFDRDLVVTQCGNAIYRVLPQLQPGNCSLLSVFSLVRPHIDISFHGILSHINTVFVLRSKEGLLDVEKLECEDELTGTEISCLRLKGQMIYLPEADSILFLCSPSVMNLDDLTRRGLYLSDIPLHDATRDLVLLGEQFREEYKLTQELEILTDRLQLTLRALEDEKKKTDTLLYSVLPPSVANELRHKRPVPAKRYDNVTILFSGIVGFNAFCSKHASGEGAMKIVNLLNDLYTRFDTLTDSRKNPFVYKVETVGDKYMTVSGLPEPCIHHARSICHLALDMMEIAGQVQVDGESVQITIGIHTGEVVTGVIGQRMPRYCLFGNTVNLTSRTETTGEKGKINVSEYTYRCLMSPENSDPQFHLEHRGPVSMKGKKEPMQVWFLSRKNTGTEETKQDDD
T1 sequence (Q02108 1-690 partner): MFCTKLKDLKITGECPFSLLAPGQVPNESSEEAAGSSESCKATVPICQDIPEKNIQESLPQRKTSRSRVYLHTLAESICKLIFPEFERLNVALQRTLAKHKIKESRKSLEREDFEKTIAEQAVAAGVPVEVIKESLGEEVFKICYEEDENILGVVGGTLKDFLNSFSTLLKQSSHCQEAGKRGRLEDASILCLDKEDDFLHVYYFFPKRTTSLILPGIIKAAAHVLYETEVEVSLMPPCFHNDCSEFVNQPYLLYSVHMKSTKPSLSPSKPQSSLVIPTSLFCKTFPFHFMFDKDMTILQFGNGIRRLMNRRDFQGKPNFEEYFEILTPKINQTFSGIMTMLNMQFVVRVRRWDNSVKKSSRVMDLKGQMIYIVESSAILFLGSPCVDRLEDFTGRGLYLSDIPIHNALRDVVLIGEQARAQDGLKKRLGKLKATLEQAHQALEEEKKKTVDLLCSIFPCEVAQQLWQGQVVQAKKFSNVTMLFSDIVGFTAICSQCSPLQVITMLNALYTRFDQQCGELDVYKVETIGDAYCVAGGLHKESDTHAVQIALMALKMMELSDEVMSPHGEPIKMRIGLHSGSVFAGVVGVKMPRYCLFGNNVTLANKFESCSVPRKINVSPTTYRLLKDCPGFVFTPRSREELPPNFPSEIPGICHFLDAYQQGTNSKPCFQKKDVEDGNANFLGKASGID

[6] = tested on: NOS; design: dose or concentration left out as unconfirmed; settings: broken cell preparations
[7] = tested on: HO (heme oxygenase); design: dose or concentration left out as unconfirmed; settings: broken cell preparations

Which “Median tumor volume decrease” value [1] does the source give for `Clc1cccc(C(c2ccc3[nH]cnc3c2)n2ccnc2)c1` (stereo not shown) [Liarozole] here?
The value was 60%.

And the “Reduction of tumor growth” value [2]?
Its value is −73%.

Which results are given for `O=CN(O)CCCP(=O)(O)O` [fosmidomycin]?
Subjects cured on day 28 ([3]; Gabon, seven out of nine subjects): 78%; Subjects cured on day 28 ([3]; Thailand, two out of nine subjects): 22%; Clinical and parasitological cure on day 7 (primary end point) ([3]; oral 1,200 mg every 8 h for 7 days): All subjects were clinically and parasitologically cured; Tolerability ([3]; oral 1,200 mg every 8 h for 7 days, mild gastrointestinal side effects in five subjects): well tolerated; Cure rate by day 14 ([4]; 1.2 g every 8 h for 3 days, six of ten): 60%; Cure rate by day 14 ([4]; 1.2 g every 8 h for 4 days, seven of eight): 88%; Cure rate by day 14 ([4]; 1.2 g every 8 h for 5 days, eight of nine): 89%; Tolerability ([4]; all treatment regimens, 1.2 g every 8 h for 5, 4 or 3 days): well tolerated

Which “Effect on sGC” value [5] does the source give for chromium mesoporphyrin IX [CrMP] here?
The value was “little or no effect”.

What about the “Effect on NOS” value [6] of the same molecule?
Its value is “little or no effect”.

What about the “Inhibition of HO” value [7] of the same molecule?
The value was 90%.
